“Also recorded” adds a separate entry of the source. Positions of bridges follow the written chain, without caps; N, C: chain ends. Non-standard residues stand in square brackets, D forms with d. Residues, ends and D or L forms follow the SMILES beside them. *: point of attachment. FITC = O=C1OC2(c3ccc(O)cc3Oc3cc(O)ccc32)c2ccc(NC(=S)*)cc21; S5 = C=CCCC[C@](C)(N)C(=O)O; βAla = NCCC(=O)O
How the values were obtained:
[1] = target: T1, N-terminally GST-tagged human β-catenin (Homo sapiens, UniProt P35222); assay: Fluorescence polarization assay with FITC-labeled peptides and GST-tagged β-catenin; assay type: binding; details: for increase in binding affinity to β-catenin compared to the wild type sequence (ax-WT): versus Axin wild type peptide
T1 sequence (P35222 1-781): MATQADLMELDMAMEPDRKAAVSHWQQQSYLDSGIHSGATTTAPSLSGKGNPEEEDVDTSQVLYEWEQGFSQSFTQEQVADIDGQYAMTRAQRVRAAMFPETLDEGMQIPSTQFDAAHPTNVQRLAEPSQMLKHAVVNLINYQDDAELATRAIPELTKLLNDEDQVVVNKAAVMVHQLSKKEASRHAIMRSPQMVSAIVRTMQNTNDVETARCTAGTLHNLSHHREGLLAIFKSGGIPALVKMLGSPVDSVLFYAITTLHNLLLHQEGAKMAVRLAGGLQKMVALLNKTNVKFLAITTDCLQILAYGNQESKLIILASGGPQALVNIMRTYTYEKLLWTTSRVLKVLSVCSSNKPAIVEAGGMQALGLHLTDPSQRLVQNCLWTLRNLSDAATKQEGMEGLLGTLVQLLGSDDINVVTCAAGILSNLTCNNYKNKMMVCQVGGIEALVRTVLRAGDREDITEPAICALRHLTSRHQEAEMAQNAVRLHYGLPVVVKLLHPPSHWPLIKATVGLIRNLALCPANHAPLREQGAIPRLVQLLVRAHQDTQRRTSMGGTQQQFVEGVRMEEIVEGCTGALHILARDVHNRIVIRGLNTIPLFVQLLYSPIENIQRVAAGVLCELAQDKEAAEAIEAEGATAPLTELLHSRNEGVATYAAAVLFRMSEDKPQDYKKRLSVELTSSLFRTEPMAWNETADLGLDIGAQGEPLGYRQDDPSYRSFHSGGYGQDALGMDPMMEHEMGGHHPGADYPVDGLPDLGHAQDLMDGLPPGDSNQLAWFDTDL
From the text: FIG. 4 depicts (a) superimposed crystal structures of TCF4 (PDB ID: 2GL7)[14] and Axin (PDB ID: 1QZ7)[15] bound to β-catenin; (b) sequences of modified peptides with NCBI accession and covered amino acids (* amino acids 29-37 were replaced by two βAla); (c) fluorescence polarization assays using FITC-labeled peptides and N-terminally GST-tagged human β-catenin (with corresponding Kds).
FIG. 7 depicts (a) fluorescently labeled peptide sequences resulting from phage display affinity optimization (entries 1, 4 and 17/18 in FIG. 6b); (b) fluorescence polarization assay with fluorescently labeled peptides and N-terminally GST-tagged human β-catenin (with corresponding Kds).
Peptide sequences derived from TCF4 and Axin were synthesized and fluorescently labeled (FIG. 4b) and the affinity of both binding domains to β-catenin was assessed. […] Therefore, the Axin derivative was considered to be the most promising candidate for the hydrocarbon stapling approach. It combines a relatively short and helical peptide sequence (15 amino acids) with moderate binding of β-catenin (Kd of ˜5 μM).

SW480 cells = assay: Cell penetration assay monitoring fluorescence of FITC-labeled peptides; assay type: cell-based; details: 10 μM peptide in 10% serum, 24 h, confocal microscope
Description: Besides its affinity to β-catenin it is cell permeability that impacts the capability of a peptide to interfere with the intracellular target. Therefore, the ability to penetrate cells was tested by monitoring fluorescence of the fluorescein(FITC)-labeled peptides.

[2] = test system: Wnt-dependent luciferase reporter; assay: Dual-luciferase Wnt-dependent reporter gene assay; assay type: cell-based; details: firefly signal normalized to Renilla luciferase control
Description: FIG. 10 depicts (a) stapled peptide sequences with corresponding Kd to β-catenin (blue boxes mark mutations meant to disrupt binding to (β-catenin, charges at pH 7.5 are calculated values); (b) inhibition of a Wnt-dependent luciferase reporter (dual-luciferase assay: signal was normalized to Renilla luciferase control); (c) dose-dependent effect of STAX-147 and STAX-160 in the dual-luciferase assay.
The cell penetrating stapled peptides were tested for their effects on transcriptional activity using an established reporter gene assay. In this dual-luciferase assay firefly luciferase is transcriptionally regulated by constitutively activated Wnt signaling. The firefly signal is normalized to the Renilla luciferase control.

[3] = Circular dichroism spectra with calculated helicities; assay type: physicochemical
From the text: Based on the crystal structure of the Axin/β-catenin complex there are four residues (yellow, FIG. 5a) that are not involved in β-catenin binding[15] and should be suitable for modification without affecting binding. Taking into consideration that only i,i+4 (one helix turn) and i,i+7 5 (two helix turns) positioning of modified residues allows sufficient cross-linking[8] three hydrocarbon stapled sequences (STAX-1, 2 and 3, FIG. 5b) were designed. Circular dichroism spectra of the fluorescently labeled peptides were recorded allowing the calculation of helicities (FIG. 5c). […] Therefore, STAX-3 was chosen as starting point for further optimizations.

Compound | increase in binding affinity to β-catenin compared to the wild type sequence (ax-WT) [1] | increase in binding affinity to β-catenin upon sequence modification ([1]; versus the preceding stapled peptide of the optimization series) | cell permeability (SW480 cells) | effect on Wnt-dependent luciferase reporter activity [2] | change of affinity to β-catenin (in words) ([1]; compared to wild type or parent peptide) | helicity ([3]; calculated from circular dichroism spectra of the fluorescently labeled peptide) [%] | change of helicity (in words) ([3]; compared to the wild type sequence (ax-WT)) | increase in helicity compared to the wild type sequence (ax-WT) ([3]; versus ax-WT) [fold]
CC[C@H](C)[C@@H]1NC(=O)[C@@](C)(NC(=O)[C@H](CCC(N)=O)NC(=O)[C@@H]2CCCN2C(=O)[C@H](Cc2c[nH]c3ccccc23)NC(=O)[C@H](CCCNC(=N)N)NC(=O)COCCOCCNC(=S)Nc2ccc3c(c2)C(=O)OC32c3ccc(O)cc3Oc3cc(O)ccc32)CCCC=CCCC[C@@](C)(C(=O)N[C@@H](Cc2c[nH]cn2)C(=O)N[C@H](C(=O)N[C@@H](CCCNC(=N)N)C(=O)N[C@@H](CCCNC(=N)N)C(=O)N[C@H](C(=O)N[C@@H](Cc2c[nH]c3ccccc23)C(=O)N[C@@H](CCCNC(=N)N)C(N)=O)C(C)C)C(C)C)NC(=O)[C@H](CC(=O)O)NC(=O)[C@H](CC(C)C)NC1=O [STAX-090] | more than 600 fold | two fold increase | increased further; also recorded: good permeability | repression of luciferase activity |  |  |  | 
CC[C@H](C)[C@H](NC(=O)[C@H](CO)NC(=O)[C@H](CCC(=O)O)NC(=O)[C@@H]1CCCN1C(=O)[C@H](Cc1c[nH]c2ccccc12)NC(=O)[C@H](CCCNC(=N)N)NC(=O)CCNC(=S)Nc1ccc2c(c1)C(=O)OC21c2ccc(O)cc2Oc2cc(O)ccc21)C(=O)N[C@@H](CC(C)C)C(=O)N[C@@H](CC(=O)O)C(=O)N[C@@H](CCC(=O)O)C(=O)N[C@@H](Cc1c[nH]cn1)C(=O)N[C@@H](Cc1c[nH]c2ccccc12)C(=O)N[C@@H](CCC(=O)O)C(=O)N[C@@H](CCCNC(=N)N)C(=O)N[C@H](C(=O)N[C@@H](CCSC)C(=O)N[C@@H](CCCNC(=N)N)C(N)=O)C(C)C [phage-01] ({FITC-βAla}-RWPESILDEHWERVMR-NH2) | 39 fold |  |  |  |  |  |  | 
CC[C@H](C)[C@@H]1NC(=O)[C@@](C)(NC(=O)[C@H](CCC(=O)O)NC(=O)[C@@H]2CCCN2C(=O)[C@H](CC(N)=O)NC(=O)[C@H](CCC(=O)O)NC(=O)CCNC(=S)Nc2ccc3c(c2)C(=O)OC32c3ccc(O)cc3Oc3cc(O)ccc32)CCCC=CCCC[C@@](C)(C(=O)N[C@@H](Cc2c[nH]cn2)C(=O)N[C@H](C(=O)N[C@@H](CCC(N)=O)C(=O)N[C@@H](CCCNC(=N)N)C(=O)N[C@H](C(=O)N[C@@H](CCSC)C(N)=O)C(C)C)C(C)C)NC(=O)[C@H](CC(=O)O)NC(=O)[C@H](CC(C)C)NC1=O [STAX-3] ({FITC-βAla}-ENPE[S5]ILD[S5]HVQRVM-NH2; staple 5-9) | 80 fold |  | non cell permeable |  | increased | 51 | increased | 3.4
CC[C@H](C)[C@H](NC(=O)[C@H](CO)NC(=O)[C@H](CCC(=O)O)NC(=O)[C@@H]1CCCN1C(=O)[C@H](CC(N)=O)NC(=O)[C@H](CCC(=O)O)NC(=O)CCNC(=S)Nc1ccc2c(c1)C(=O)OC21c2ccc(O)cc2Oc2cc(O)ccc21)C(=O)N[C@@H](CC(C)C)C(=O)N[C@@H](CC(=O)O)C(=O)N[C@@H](CCC(=O)O)C(=O)N[C@@H](Cc1c[nH]cn1)C(=O)N[C@H](C(=O)N[C@@H](CCC(N)=O)C(=O)N[C@@H](CCCNC(=N)N)C(=O)N[C@H](C(=O)N[C@@H](Cc1c[nH]c2ccccc12)C(=O)N[C@@H](CCCNC(=N)N)C(N)=O)C(C)C)C(C)C [phage-17/18] ({FITC-βAla}-ENPESILDEHVQRVWR-NH2) | 8 fold |  |  |  |  |  |  | 

From patent publication US8957026B2, “Beta-catenin targeting peptides and uses thereof” (President and Fellows of Harvard College, priority 2010, dated 2015)
